The results in this text go back to publication PMC8308845, “Discovery of Novel Chemical Series of OXA-48 β-Lactamase Inhibitors by High-Throughput Screening” (Pharmaceuticals, 2021).

Some results are limits rather than exact numbers.

The target of the first experiment is T1, OXA-48 (Klebsiella pneumoniae, UniProt Q6XEC0).
T1 construct: made in house; host or cells: E. coli BL21(DE3), T7 expression system
T1 sequence (Q6XEC0 23-265, looked up): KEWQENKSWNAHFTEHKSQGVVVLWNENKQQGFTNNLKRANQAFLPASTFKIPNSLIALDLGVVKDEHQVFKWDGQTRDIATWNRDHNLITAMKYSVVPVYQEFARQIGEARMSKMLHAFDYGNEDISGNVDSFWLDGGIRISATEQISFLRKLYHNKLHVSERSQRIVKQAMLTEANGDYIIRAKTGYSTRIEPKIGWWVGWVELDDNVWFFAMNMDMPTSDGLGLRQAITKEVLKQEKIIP
Kind of experiment: OXA-48 primary enzymatic assay (nitrocefin substrate, fluorescence-quenching readout). The experiment is classed as biochemical. Particulars: AC50 ratio; parent ID3 for ID6, parent ID2 for 3 and 5–9. Here is the method: After an initial pilot run (three plates, consisting of 960 randomly selected compounds), the primary screening of the subset plates was carried out at 20 µM in single point against OXA-48 enzyme in a nitrocefin-based assay, using the fluorescence-quenching readout. This enzymatic assay employs the cephalosporin nitrocefin as OXA-48 substrate and takes advantage of the fluorescent properties of white microtiter plates. Chromogenic nitrocefin is hydrolyzed by β-lactamases to yield a product with increased absorbance properties (~495 nm) that quenches the plate fluorescence by absorbing the plate’s emission light. In this assay, test compounds that inhibit OXA-48 catalytic activity are predicted to reduce nitrocefin quenching of plate fluorescence, resulting in a quantitative increase in well fluorescence (ON-system for inhibitors). The nitrocefin-based epi-absorbance readout system has been successfully applied in HTS campaigns on other β-lactamases, such as IMP-1 and VIM-2, with the identification of inhibitors belonging to novel scaffolds displaying a favourable degree of selectivity and sub-micromolar potency.
The screening results were expressed as activity percent. […] Overall, the primary assay robustness was good, with Robust Z Prime factor (RZ′) equal to 0.86.
In total, 256 active molecules (125 from the subset and 131 from the full set) were then assayed in dose–response at eight concentrations from 60 to 0.002 µM with interplate triplicate data points.
The blaOXA gene coding for the OXA-48 ß-lactamase, originally cloned from the K. pneumonia 11978 (a clinical isolate from Istanbul Faculty Hospital, Istanbul, Turkey) was overexpressed via a T7 expression system in E. coli BL21(DE3), and its product, native protein, (final yield of 30 mg/L of culture) was subjected to several purification steps, including ion-exchange chromatography with Q-Sepharose and 20 mM Tris-HCl buffer (pH 9.0), followed by chromatography with S-Sepharose columns and 100 mM sodium phosphate buffer (pH 5.8). Elution of the beta-lactamase was performed with a K2SO4 gradient. Peaks of beta-lactamase activity were concentrated and were dialyzed with 100 mM phosphate buffer (pH 7.0). The OXA-48 enzyme was purified to homogeneity (with a degree of purity around 95.4%.)-as measured by 12% SDS PAGE [23]. OXA-48 protein stock solution (2 mg/mL) was finally prepared in 20 mM Hepes (pH 8,1). OXA-48 β-lactamase specific activity was measured by following the hydrolysis of 100 μM nitrocefin (ε: 17,000 M-1 cm^−1 at 482 nm; Δε: 15,000 M-1 cm^−1 at 482 nm) and corresponding to 60.45 μmoles min^−1 mg^−1 of OXA-48 (kcat = 28.85 s^−1) enzyme. A MW of 28,147 g/mol, calculated from the enzyme sequence was confirmed by MALDI-TOF analysis with a Mass error of ± 2.8 Da.
The primary assay was developed to monitor the enzymatic activity of OXA-48 taking advantage of the spectroscopic properties of white microtiter plates (Optiplate-384, PerkinElmer, #6007290), as indicated by Zuck et al.. Nitrocefin is chromogenic substrate for beta-lactamases with λmax = 395 nm (yellow). Upon hydrolysis by OXA-48, nitrocefin yields (2R)-2-[(R)-carboxy[2-(thiophen-2-yl)acetamido]methyl]-5-[(E)-2-(2,4-dinitrophenyl)ethenyl]-3,6-dihydro-2H-1,3-thiazine-4-carboxylic acid, with increased absorbance properties at λmax = 495 nm. Spectroscopic features of the reaction product are exploited to quench the plate intrinsic fluorescence by absorbing the plate’s emission light, which can be monitored by exciting the reaction at 485 nm and recording the emission at 520 nm. Therefore, the primary assay for HTS was an ON-assay, in which compounds targeting OXA-48 were predicted to elicit an increase of the fluorescence signal.
The primary assay was performed in reaction buffer (20 mM Hepes pH 8.0, 12.5 mM NaCl, 0.005% BSA, 0.0005% Brij-35) in the presence of 0.0014 ng/µL OXA-48 and 25 µM nitrocefin in a final volume of 20 µL/well in 384 MTP format. […]
With `CCc1ccc(-c2n[nH]c3nc(-c4cccc(C(=O)O)c4)cc(C(=O)O)c23)cc1` [Compound 3, 6-(3-Carboxyphenyl)-3-(4-ethylphenyl)-1H-pyrazolo[3,4-b]pyridine-4-carboxylic acid], the “fold loss in potency/activity versus parent compound” value was 17 fold.
The same measure, in the same setting: the same measure for `O=C(O)c1ccc(/C=N/n2cnnc2S)cc1` [ID6]: “more than 20 fold”.

The experiment is the same for the next values; noted with them: dose–response, median of triplicate wells; 15 min preincubation, 25 µM nitrocefin.
For orientation: AC50 means the midpoint of the concentration-response curve, whichever way the signal moves. The molecule `CCc1ccc(-c2n[nH]c3nc(-c4ccc(C(=O)O)c(F)c4)cc(C(=O)O)c23)cc1` [Compound 1, 6-(4-Carboxy-3-fluorophenyl)-3-(4-ethylphenyl)-1H-pyrazolo[3,4-b]pyridine-4-carboxylic acid] displayed an AC50 of 0.92 µM.
In turn, `CCc1ccc(-c2n[nH]c3nc(-c4ccc(C(=O)O)cc4F)cc(C(=O)O)c23)cc1` [Compound 2, 6-(4-Carboxy-2-fluorophenyl)-3-(4-ethylphenyl)-1H-pyrazolo[3,4-b]pyridine-4-carboxylic acid] gave a concentration at half-maximal activity (AC50) of 1.48 µM.
Regarding `CCc1ccc(-c2n[nH]c3nc(-c4cccc(C(=O)O)c4)cc(C(=O)O)c23)cc1` [Compound 3, 6-(3-Carboxyphenyl)-3-(4-ethylphenyl)-1H-pyrazolo[3,4-b]pyridine-4-carboxylic acid], the AC50 stood at 16.8 µM.
The same measure, in the same setting: the same measure for `CCc1ccc(-c2n[nH]c3nc(-c4ccc(CC(=O)O)cc4)cc(C(=O)O)c23)cc1` [Compound 4, 6-(4-(Carboxymethyl)phenyl)-3-(4-ethylphenyl)-1H-pyrazolo[3,4-b]pyridine-4-carboxylic acid]: 4.78 µM; for `CCc1ccc(-c2n[nH]c3nc(-c4cc(F)c(O)cc4F)cc(C(=O)O)c23)cc1` [Compound 5, 6-(2,5-Difluoro-4-hydroxyphenyl)-3-(4-ethylphenyl)-1H-pyrazolo[3,4-b]pyridine-4-carboxylic acid]: 16.2 µM.
On the same count and under the same terms, the same measure for `CCc1ccc(-c2n[nH]c3nc(-c4cc(F)c(O)c(F)c4)cc(C(=O)O)c23)cc1` [Compound 6, 6-(3,5-Difluoro-4-hydroxyphenyl)-3-(4-ethylphenyl)-1H-pyrazolo[3,4-b]pyridine-4-carboxylic acid]: 24.4 µM; for `CCc1ccc(-c2n[nH]c3nc(-c4ccc(O)c(F)c4F)cc(C(=O)O)c23)cc1` [Compound 7, 6-(2,3-Difluoro-4-hydroxyphenyl)-3-(4-ethylphenyl)-1H-pyrazolo[3,4-b]pyridine-4-carboxylic acid]: 51.2 µM; for `CCc1ccc(-c2n[nH]c3nc(-c4cc(Cl)c(O)c(OC)c4)cc(C(=O)O)c23)cc1` [Compound 8, 6-(3-Chloro-4-hydroxy-5-methoxyphenyl)-3-(4-ethylphenyl)-1H-pyrazolo[3,4-b]pyridine-4-carboxylic acid]: 13.7 µM.
Same read-out and setting: then `CCc1ccc(-c2n[nH]c3nc(-c4cc(F)c(O)c(Cl)c4)cc(C(=O)O)c23)cc1` [Compound 9, 6-(3-Chloro-5-fluoro-4-hydroxyphenyl)-3-(4-ethylphenyl)-1H-pyrazolo[3,4-b]pyridine-4-carboxylic acid], with 63.8 µM.
Consider `CCc1ccc(-c2n[nH]c3nc(-c4ccc(C(=O)O)cc4)ccc23)cc1` [Compound 10, 4-(3-(4-Ethylphenyl)-1H-pyrazolo[3,4-b]pyridin-6-yl)benzoic acid], for which the AC50 is above 100 µM.
Same read-out and setting: then `CCc1ccc(-c2n[nH]c3nc(-c4ccc(C(=O)O)cc4)cc(C(F)(F)F)c23)cc1` [Compound 11, 4-(3-(4-Ethylphenyl)-4-(trifluoromethyl)-1H-pyrazolo[3,4-b]pyridin-6-yl)benzoic acid], with above 100 µM.
On to `CCc1ccc(-c2n[nH]c3nc(-c4ccc(C(=O)O)cc4)cc(CO)c23)cc1` [Compound 12, 4-(3-(4-Ethylphenyl)-4-(hydroxymethyl)-1H-pyrazolo[3,4-b]pyridin-6-yl)benzoic acid], for which the half-maximal activity concentration (AC50) is above 100 µM and the “OXA-48 AC50” value is recorded as “complete loss of activity”.
`CCc1ccc(-c2n[nH]c3nc(-c4ccc(C(=O)O)cc4)cc(CC)c23)cc1` [Compound 13, 4-(4-Ethyl-3-(4-ethylphenyl)-1H-pyrazolo[3,4-b]pyridin-6-yl)benzoic acid] displayed an AC50 above 100 µM.
On to `CCc1ccc(-c2n[nH]c3nc(-c4ccc(C(=O)O)cc4)cc(C(N)=O)c23)cc1` [Compound 14, 4-(4-Carbamoyl-3-(4-ethylphenyl)-1H-pyrazolo[3,4-b]pyridin-6-yl)benzoic acid], for which the “OXA-48 AC50” value is recorded as “complete loss of activity”.
`O=C(O)c1ccc(/C=N/n2c(S)nnc2-c2ccc(Cl)cc2Cl)cc1` [ID4] yielded an AC50 of 3.17 µM.
On the same count and under the same terms, then `O=C(O)c1ccc(/C=N/n2c(S)nnc2C2CCCCC2)cc1` [ID5], with 2.88 µM.
In the case of `O=C(O)c1ccc(/C=N/n2cnnc2S)cc1` [ID6], the AC50 amounted to 15.7 µM.
On the same count and under the same terms, the same measure for `COC(=O)c1ccc(/C=N/n2c(S)nnc2-c2ccccc2)cc1` [ID9]: 35.6 µM; for `N#Cc1ccc(/C=N/n2c(S)nnc2-c2ccccc2)cc1` [ID11]: 12 µM; for `Sc1nnc(-c2ccccc2)n1/N=C/c1cccs1` [ID23]: 24.8 µM.
As for `CCc1ccc(-c2n[nH]c3nc(-c4ccccc4)cc(C(=O)O)c23)cc1` [ID30], the AC50 turned out to be 249 µM and the “OXA-48 AC50” value was “inactive”.
With `CCc1ccc(-c2n[nH]c3nc(-c4ccccc4O)cc(C(=O)O)c23)cc1` [ID31], the “OXA-48 AC50” value is “inactive”.
